Results on 43 compounds are retold here after the RepoRT retention time repository.

Molecules are shown by their SMILES.

This data set is described as follows: Waters ACQUITY UPLC BEH C18, 50 × 2.1 mm, 1.7 µm, 30 °C, 0.3 mL/min, estimated dead time 0.37 min; A: water + 0.3% formic acid; B: acetonitrile; gradient (min/%B) 0.5/5 3.5/20 5.5/25 7/57 8/90. The conditions noted are these: stereoisomer not certain.

As to `CC(=O)Nc1nnc(S(N)(=O)=O)s1`, the LC retention time was 1.78 min.
For `CNC(C)(C)Cc1ccccc1`, the LC retention time is 3.14 min.
As for `CNC(C)CCC=C(C)C` (stereo not drawn), the LC retention time was 3.6 min.
Consider `CC(C)(C)NCC(O)COc1cccc2c1CCCC2=O` (stereo not drawn), for which the LC retention time was 4 min.
As for `CC(Cc1ccccc1)NC(C#N)c1ccccc1` (stereo not drawn), the LC retention time is 7.8 min.
For the compound `CCC1(c2ccc(N)cc2)CCC(=O)NC1=O` (stereo not drawn), the LC retention time was 2.2 min.
As for `CC(Cc1ccccc1)N(C)Cc1ccco1` (stereo not drawn), the LC retention time is 4.46 min.
With `Cc1cc(C)cc(NC(=O)Cc2ccc(OC(C)(C)C(=O)O)cc2)c1` the figure was 7.59 min.
The result for `C1CCc2nnnn2CC1` reads 2.4 min.
Consider `CC(N)Cc1ccccc1` (stereo not drawn), for which the LC retention time is 2.37 min.
For the compound `CNC(C)Cc1ccc(O)cc1` (stereo not drawn), the LC retention time is 1.24 min.
The result for `c1ccc(CN2CCNCC2)cc1` reads 0.67 min; that for `NC(=O)CN1CC(c2ccccc2)CC1=O` (stereo not drawn), 3.86 min.
`CCC(C(=O)OCCN1CCOC(c2ccccc2)C1C)c1ccccc1` (stereo not drawn): the LC retention time is 7.17 min.
On to `Cc1ccccc1CC(C)N` (stereo not drawn), for which the LC retention time was 3.25 min.
The result for `Nc1nc(N)c(-c2ccccc2)s1` reads 1.84 min.
With `CCC(=C(c1ccccc1)c1ccc(OCCN(C)C)cc1)c1ccccc1`, the LC retention time is 7.76 min.
For `O=C(O)C(c1ccccc1)C1CCCCN1` (stereo not drawn), the LC retention time was 3.25 min.
Turning to `CCC(C)CC(C)N` (stereo not drawn), the LC retention time is 2.87 min.
As for `CC=CC(=O)N(CCC)C(CC)C(=O)N(C)C` (stereo not drawn), the LC retention time is 5.92 min.
With `CC(Cc1ccccc1)N(C)C` (stereo not drawn) the figure was 2.76 min; with `CC1(O)CCC2C3CCC4=CC(=O)CCC4=C3C=CC21C` (stereo not drawn), 7.12 min; with `C#CC1(O)CCC2C3CCC4=Cc5oncc5CC4(C)C3CCC21C` (stereo not drawn), 8.13 min.
Consider `CCCC(=O)Nc1ccc(OCC(O)CNC(C)C)c(C(C)=O)c1` (stereo not drawn), for which the LC retention time is 3.71 min.
The result for `N=C1NC(=O)C(c2ccccc2)O1` (stereo not drawn) reads 2.7 min.
Regarding `CC12CCC(=O)C=C1C=CC1C2CCC2(C)C1CCC21CCC(=O)O1` (stereo not drawn), the LC retention time is 7.63 min.
With `CN(C)C(=O)Oc1cc(OC(=O)N(C)C)cc(C(O)CNC(C)(C)C)c1` (stereo not drawn) the figure was 4.59 min.
As for `CNC(C)C(O)c1ccccc1` (stereo not drawn), the LC retention time was 2 min.
The result for `CC(C)NCC(O)c1ccc(NS(C)(=O)=O)cc1` (stereo not drawn) reads 1.58 min; that for `CC12C=CC(=O)C=C1CCC1C2C(=O)CC2(C)C1CCC2(O)C(=O)CO` (stereo not drawn), 6.12 min.
On to `CCC(=O)C(CC(C)N(C)C)(c1ccccc1)c1ccccc1` (stereo not drawn), for which the LC retention time was 7.03 min.
Take `O=C(CS(=O)C(c1ccccc1)c1ccccc1)NO` (stereo not drawn): the LC retention time is 5.7 min.
Consider `CC=CC(=O)N(CC)C(CC)C(=O)N(C)C` (stereo not drawn), for which the LC retention time is 4.55 min.
As to `O=C(c1ccc(OCCN2CCCCC2)cc1)c1c(-c2ccc(O)cc2)sc2cc(O)ccc12`, the LC retention time was 6.58 min.
With `COCCc1ccc(OCC(O)CNC(C)C)cc1` (stereo not drawn) the figure was 3.81 min; with `CN1C2CCC1C(C(=O)O)C(OC(=O)c1ccccc1)C2` (stereo not drawn), 3.31 min.
The result for `COC(=O)CCc1ccc(OCC(O)CNC(C)C)cc1` (stereo not drawn) reads 4.31 min; that for `CC(Cc1ccccc1)N(C)Cc1ccccc1` (stereo not drawn), 5.59 min.
With `CC(C)(C)NCC(O)COc1nsnc1N1CCOCC1` (stereo not drawn), the LC retention time is 3.62 min.
With `CC(Cc1ccccc1)[n+]1cc(N=C([O-])Nc2ccccc2)on1` (stereo not drawn) the figure was 7.25 min; with `CN1CCC23c4c5ccc(O)c4OC2C(=O)CCC3C1C5` (stereo not drawn), 1.48 min; with `CN1CCC23c4c5ccc(O)c4OC2C(O)C=CC3C1C5` (stereo not drawn), 1.1 min.
With `Cc1cc2c(OCC(CNC(C)(C)C)OC(=O)c3ccccc3)cccc2[nH]1` (stereo not drawn) the figure was 6.95 min.
